Several values for one entry are separate records, joined by “and”; a condition that tells them apart may be missing. Equal entries are not always repeated.
Structure (SMILES) | pKa
CN1CCN(Cc2ccccc2S(=O)(=O)c2csc(S(N)(=O)=O)c2)CC1.Cl | 6.4
NC(N)=S | 21.1
CC(C(=O)O)c1ccc(-c2ccccc2)c(F)c1 (stereo not drawn) | 4.6 and 4.2
Fc1ccccc1Nc1c2ccccc2nc2ccccc12 | 6.84
COc1cc(NS(C)(=O)=O)ccc1Nc1c2ccccc2nc2cnccc12 | 5.53
Cc1ccc(NS(=O)(=O)Cc2ccccc2)c(=O)n1CC(=O)NCc1ccc(C(=N)N)c(F)c1 | 9.2
COc1ccc2c(Nc3ccc(NS(C)(=O)=O)cc3)c3ccccc3nc2c1 | 7.57
CSc1nc(N)c2ncn([C@@H]3O[C@H](COP(=O)(O)OP(=O)(O)CP(=O)(O)O)[C@@H](O)[C@H]3O)c2n1 | 8.4
COC(=O)Nc1ccc(Nc2c3ccccc3nc3ccccc23)cc1 | 7.64
CCCOC(=O)CN(CCN(CCN(CC(=O)O)CC(=O)O)CC(=O)O)CC(=O)O | 1.8
O=S1NC(CCc2ccccc2)=NO1 (stereo not drawn) | 5.23
CCCCNC(=O)NS(=O)(=O)c1ccc(C)cc1 | 5.3
O=C(O)CCc1ccccc1 | 4.64
OCCN1CCN(CCCN2c3ccccc3Sc3ccc(Cl)cc32)CC1 | 7.8
Nc1ncnc2c1ncn2[C@@H]1O[C@H](COS(=O)(=O)NC(=O)c2ccccc2)[C@@H](O)[C@H]1O | 2.8
Oc1nsc2c1CNCC2 | 9.2
COc1cc(Cl)c(N=C2NCCN2)c(Cl)c1 | 8.57
Oc1ccccc1Nc1c2ccccc2nc2ccccc12 | 7.8
FC1(F)CCCNC1 | 7.4
CN1C=CC(C2NC(C(Cl)(Cl)Cl)=CN2c2ccc(S(N)(=O)=O)cc2)C=C1 (stereo not drawn) | 7.89
Cc1nc(N)ncc1CNC(=O)Cn1c(C)ccc(NS(=O)(=O)Cc2ccccc2)c1=O | 4.2
CNc1ccc([N+](=O)[O-])c2c(NCCCN(C)C)ccnc12 | 4.22
CCCCc1nc(Cl)c(COC)n1Cc1ccc(NC(=O)c2ccccc2S(=O)(=O)O)cc1 | -6.6
COc1cc2nc(N3CCN(C(=O)C4CCCO4)CC3)nc(N)c2cc1OC (stereo not drawn) | 7.1

Structure (SMILES) | pKa
c1ccc(NC2=NCCN2)cc1 | 10.1
N[C@@H]1C[C@]1(F)c1ccccc1 | 6.98
c1c[nH]cn1 | 6.99
Oc1cc(C2CCNCC2)sn1 | 10.7
Cc1ccc(NS(=O)(=O)Cc2ccccc2)c(=O)n1CC(=O)NCc1cnc(N)nc1 | 3.9
CS(=O)(=O)Nc1ccc(Nc2c3ccccc3nc3cc(N=[N+]=[N-])ccc23)cc1 | 7
Cc1ccc(NS(=O)(=O)Cc2ccccc2)c(=O)n1CC(=O)NCc1ccc(C(=N)N)s1 | 10.3
CCOC(=O)C1(c2ccccc2)CCN(C)CC1 | 8.7
COc1cccc(Nc2c3ccccc3nc3ccccc23)c1 | 7.21
Cn1ccnc1N | 8.54
Cc1nc2c(CCc3ccccc3)cccn2c1CC#N | 6
Nc1ccc(Nc2c3ccccc3nc3ccccc23)cc1 | 8.36
Cc1nc(N)ncc1CNC(=O)Cn1c(C)cnc(NCCc2ccccc2)c1=O | 4.2
NC1OC(CO)C(O)C(O)C1O (stereo not drawn) | 5.6
COc1cc(NS(C)(=O)=O)ccc1Nc1c2ccccc2nc2c(C(=O)N(C)C)cccc12 | 6.16
NS(=O)(=O)Cc1ccc(Nc2c3ccccc3nc3ccccc23)cc1 | 7.05
O=c1ccc(-c2ccc(S(=O)(=O)Nc3cccc4c3CCCC4)s2)n[nH]1 | -2.5
FC1(F)CCNCC1 | 8.5
Nc1ccc(S(=O)(=O)Nc2ccc(Nc3c4ccccc4nc4ccccc34)cc2)cc1 | 7.15
O=C(C1CCN(c2ccncc2)CC1)N1CCN(S(=O)(=O)c2ccc(Br)cc2)CC1 | 9.2
NC(=O)Cc1ccc(Nc2c3ccccc3nc3ccccc23)cc1 | 7.43
COc1ccc(CCNCCCC(C#N)(c2ccc(OC)c(OC)c2)C(C)C)cc1OC (stereo not drawn) | 9.87
CNCCCC12CCC(c3ccccc31)c1ccccc12 | 10.5
O=c1[nH]c(=O)n([C@H]2C[C@H](O)[C@@H](CO)O2)cc1I | 8.2

Structure (SMILES) | pKa
CN1CC(C)(c2cccc(NC(=O)c3ccc(Cl)cn3)c2)N=C(N)C1=O (stereo not drawn) | 7.6
CNc1ccc2c(Nc3ccc(NS(C)(=O)=O)cc3)c3ccccc3nc2c1 | 9.3
Clc1ccc(Cl)c(N=C2NCCN2)c1 | 8.5
CS(=O)(=O)Nc1ccc(Nc2c3ccccc3nc3cc(N)ccc23)cc1 | 9.8
Cc1ccc(NS(=O)(=O)Cc2ccccc2)c(=O)n1CC(=O)NCc1cnc(N)cn1 | 2.7
Cc1nc2c(CCc3ccccc3)cccn2c1N | 7.3
COc1cc(NS(C)(=O)=O)ccc1Nc1c2ccccc2nc2cc(Br)ccc12 | 6.84
Cc1ccc(NS(=O)(=O)Cc2ccccc2)c(=O)n1CC(=O)NCc1ccc(C(=N)N)cc1 | 10.2
CCc1ccccc1Nc1c2ccccc2nc2ccccc12 | 7.68
O=C(O)c1coc2ccccc2c1=O | 8.85
C[C@H](CO)Nc1nc(SCc2cccc(F)c2F)nc2[nH]c(=O)sc12 | 6.7
N[C@H]1C[C@]1(F)c1ccccc1 | 7.35
BP(=O)(OC[C@H]1O[C@@H](n2cnc3c(N)ncnc32)[C@H](O)[C@@H]1O)OP(=O)(O)C(Cl)(Cl)P(=O)(O)O (stereo partly drawn) | 7
CC1=NS(=O)(=O)c2cc(Cl)ccc2N1 | 8.62
COC(=O)[C@H]1[C@H]2C[C@@H]3c4[nH]c5cc(OC)ccc5c4CCN3C[C@H]2C[C@@H](OC(=O)c2cc(OC)c(OC)c(OC)c2)[C@@H]1OC | 7.25
O=C(O)CN(CCN(CC(=O)O)CC(=O)O)CCN(CC(=O)O)C(COCc1ccccc1)C(=O)O (stereo not drawn) | 2.07
CS(=O)(=O)Nc1ccc(Nc2c3ccccc3nc3ccccc23)c(N)c1 | 7.65
Cc1ccc(NS(=O)(=O)Cc2ccccc2)c(=O)n1CC(=O)NC[C@H]1CN=C(N)NC1 | 14
CNC(=O)c1cccc2c(Nc3ccc(NS(C)(=O)=O)cc3OC)c3cccc(C)c3nc12 | 6.4
CC12CC3CC(C1)CC(N)(C3)C2 | 10.6
NC(=O)C(F)(F)F | 17.2
COc1cc(NS(C)(=O)=O)ccc1Nc1c2ccccc2nc2cc(C#N)ccc12 | 5.94
c1c[nH]nn1 | 1.17
CS(=O)(=O)Nc1ccc(Nc2c3ccccc3nc3ccc(Cl)cc23)cc1 | 6.42

Structure (SMILES) | pKa
O=C(c1ccccc1)c1ccc2n1CCC2C(=O)O (stereo not drawn) | 3.5
COc1cccc(S(=O)(=O)Nc2cccn(CC(=O)NCc3ccc(C(=N)N)cc3OC)c2=O)c1 | 10
CC(C)(C)NCc1ccc(S(=O)(=O)c2csc(S(N)(=O)=O)c2)cc1.Cl | 8.08
COC(=O)c1ccc(OS(N)(=O)=O)cc1 | 8.28
CN(C)CCCC(C)(C)c1ccc(C(C)(C)C)cc1 | 9.8
COc1cc(NS(C)(=O)=O)ccc1Nc1c2ccccc2nc2c(-c3ccccc3)cccc12 | 7.02
COC(=O)c1ccccc1Nc1c2ccccc2nc2ccccc12 | 6.3
Nc1ccccc1Nc1c2ccccc2nc2ccccc12 | 7.87
Cc1cc(Nc2c3ccccc3nc3ccccc23)ccc1NS(C)(=O)=O | 7.08
Cc1cnc(NCCc2ccccc2)c(=O)n1CC(=O)NC[C@H]1CN=C(N)NC1 | 14
CC(CN(C)C)CN1c2ccccc2CCc2ccccc21 (stereo not drawn) | 9.24
Cc1nc2c(/C=C/Cc3ccccc3)cccn2c1CC#N | 5.7
CCOC(=O)c1ccc(N)cc1 | 2.5
Cc1cc(Cl)cc(C)c1N=C1NCCN1 | 10.2
c1cncc(Nc2c3ccccc3nc3ccccc23)c1 | 6.46
CCN(CC)C(=O)[C@@H]1C=C2c3cccc4[nH]cc(c34)C[C@H]2N(C)C1 | 7.8
COc1cc(NS(C)(=O)=O)ccc1Nc1c2ccccc2nc2ccc(N)cc12 | 7.37
CCN(C)C | 10.2
CN/C(=N/CCSCc1nc[nH]c1C)NC#N | 6.8 (3×) and 6.97 (2×)
Cc1cnc(NCC2(c3ccc(Cl)cc3)CCC2)c(=O)n1CC(=O)NCc1cnc(N)cn1 | 2.7
NS(=O)(=O)c1cc(S(=O)(=O)c2ccc(O)cc2)cs1 | 7.46
O=C(Nc1ccccc1)Nc1ccc(Nc2c3ccccc3nc3ccccc23)cc1 | 7.67
NC(=O)CF | 22.3
CS(=O)(=O)Nc1ccccc1Nc1c2ccccc2nc2ccccc12 | 6.86

Structure (SMILES) | pKa
Clc1cccc(Br)c1N=C1NCCN1 | 7.93
Brc1cccc(Br)c1N=C1NCCN1 | 7.8
c1ccc(-c2ncc[nH]2)cc1 | 6.48
Cc1c(-c2noc(-c3ccc(OC(C)C)c(C#N)c3)n2)cnc2c1CCN(C(CO)CO)C2 | 6.2
CNCc1cn(S(=O)(=O)c2cccnc2)c(-c2cccnc2F)c1F | 8.54
Brc1ncc[nH]1 | 3.79
BP(=O)(OC[C@H]1O[C@@H](n2cnc3c(N)nc(SC)nc32)[C@H](O)[C@@H]1O)OP(=O)(O)C(F)(F)P(=O)(O)O (stereo partly drawn) | 7
CCC1(CCC(C)C)C(=O)N=C(O)NC1=O (stereo not drawn) | 7.8
CN1CCN(Cc2ccc(S(=O)(=O)c3csc(S(N)(=O)=O)c3)cc2)CC1.Cl | 7.4
CN(C)CCCNc1ccnc2cccc([N+](=O)[O-])c12 | 6.39
CC(C)c1ccccc1Nc1c2ccccc2nc2ccccc12 | 7.64
CCCCNCc1ccc(C(=O)c2csc(S(N)(=O)=O)c2)cc1.Cl | 8.12
CN1C[C@H](C(=O)N[C@]2(C)O[C@@]3(O)[C@@H]4CCCN4C(=O)[C@H](Cc4ccccc4)N3C2=O)C=C2c3cccc4[nH]cc(c34)C[C@H]21 | 6.3
C/C(=N\N=C(/S)N/N=C(\S)Nc1cccc(C(F)(F)F)c1)c1ccccn1 | 6.79
Cc1nc(N)nc(C)c1CNC(=O)Cn1c(C)ccc(NS(=O)(=O)Cc2ccccc2)c1=O | 4.7
NCCC(F)(F)F | 8.7
CN(C)CCCN1c2ccccc2Sc2ccccc21 | 9.4
CN1CCN2c3ncccc3Cc3ccccc3C2C1 (stereo not drawn) | 7.3
BP(=O)(OC[C@H]1O[C@@H](n2cnc3c(N)nc(SC)nc32)[C@H](O)[C@@H]1O)OP(=O)(O)CP(=O)(O)O (stereo partly drawn) | 8.4
COc1ccccc1Nc1c2ccccc2nc2ccccc12 | 7.74
CCc1ccc2c(Nc3ccc(NS(C)(=O)=O)cc3OC)c3ccccc3nc2c1 | 7.65
COc1cc(NS(C)(=O)=O)ccc1Nc1c2ccccc2nc2cc(C(C)C)ccc12 | 7.66

— the pKa sets of Baltruschat and Czodrowski (2020)
